The term IC50 denotes the midpoint of a concentration-inhibition curve. What is called DC50 is the concentration at which degradation of the target reaches its halfway point. Broadly, the Emax is the maximal effect, on the per cent scale that the assay sets. For orientation: TGI means the reduction of tumour growth relative to the control group. What is called GI50 is the concentration giving 50% growth inhibition. What is called Kd is a measure of binding affinity in units of concentration. A word on the EC50: it is the midpoint of the concentration-response curve.

Results on eight compounds are retold here after ChEMBL document CHEMBL5241114, “A comprehensive review of BET-targeting PROTACs for cancer therapy” (Bioorg Med Chem, 2022).

Each structure is given as a SMILES string.

Series [1] has as its target Folliculin-interacting protein 1 (Homo sapiens, UniProt Q8TF40). Briefly: Inhibition of FNIP1 in human HEK293T cells. The series is classed as cell-based.
The target in series [2] is Protein fem-1 homolog B/Folliculin-interacting protein 1 (Homo sapiens, UniProt Q8TF40+Q9UK73). Nature of the series: Inhibition of FEMIB/FNIP1 interaction in human HEK293T cells. The series is classed as cell-based.
Protein fem-1 homolog B/Folliculin-interacting protein 1, sequence (Q8TF40 whole entry): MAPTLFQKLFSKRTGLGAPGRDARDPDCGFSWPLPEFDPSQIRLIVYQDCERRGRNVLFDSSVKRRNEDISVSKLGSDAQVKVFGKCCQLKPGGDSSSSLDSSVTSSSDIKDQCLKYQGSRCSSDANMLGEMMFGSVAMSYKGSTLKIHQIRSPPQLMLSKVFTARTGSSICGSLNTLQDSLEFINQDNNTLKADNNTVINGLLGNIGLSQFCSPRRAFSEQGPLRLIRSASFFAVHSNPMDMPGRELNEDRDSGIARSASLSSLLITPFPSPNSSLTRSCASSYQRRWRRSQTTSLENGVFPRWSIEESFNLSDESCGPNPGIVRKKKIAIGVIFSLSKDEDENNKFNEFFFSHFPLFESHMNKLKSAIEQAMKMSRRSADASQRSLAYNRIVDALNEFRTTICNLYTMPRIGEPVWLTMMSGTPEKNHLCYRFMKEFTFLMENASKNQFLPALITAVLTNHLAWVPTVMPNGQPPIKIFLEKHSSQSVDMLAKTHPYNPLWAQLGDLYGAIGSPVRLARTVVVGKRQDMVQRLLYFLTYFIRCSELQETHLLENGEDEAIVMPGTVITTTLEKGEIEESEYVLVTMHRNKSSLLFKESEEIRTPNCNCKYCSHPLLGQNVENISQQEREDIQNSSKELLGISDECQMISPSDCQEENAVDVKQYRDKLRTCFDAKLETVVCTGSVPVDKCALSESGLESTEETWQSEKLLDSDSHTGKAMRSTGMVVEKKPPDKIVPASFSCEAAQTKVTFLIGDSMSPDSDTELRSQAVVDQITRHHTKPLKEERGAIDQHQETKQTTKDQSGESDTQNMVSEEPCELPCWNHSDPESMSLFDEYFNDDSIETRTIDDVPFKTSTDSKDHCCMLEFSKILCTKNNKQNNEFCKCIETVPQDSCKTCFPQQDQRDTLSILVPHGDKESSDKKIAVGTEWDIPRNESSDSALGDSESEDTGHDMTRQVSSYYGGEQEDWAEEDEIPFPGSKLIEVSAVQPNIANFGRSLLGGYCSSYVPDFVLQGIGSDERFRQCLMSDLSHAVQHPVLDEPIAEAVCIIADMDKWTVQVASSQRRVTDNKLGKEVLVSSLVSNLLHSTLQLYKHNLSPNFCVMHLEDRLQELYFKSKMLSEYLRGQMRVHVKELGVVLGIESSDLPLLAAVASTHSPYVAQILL
Protein fem-1 homolog B/Folliculin-interacting protein 1, sequence (Q9UK73 whole entry): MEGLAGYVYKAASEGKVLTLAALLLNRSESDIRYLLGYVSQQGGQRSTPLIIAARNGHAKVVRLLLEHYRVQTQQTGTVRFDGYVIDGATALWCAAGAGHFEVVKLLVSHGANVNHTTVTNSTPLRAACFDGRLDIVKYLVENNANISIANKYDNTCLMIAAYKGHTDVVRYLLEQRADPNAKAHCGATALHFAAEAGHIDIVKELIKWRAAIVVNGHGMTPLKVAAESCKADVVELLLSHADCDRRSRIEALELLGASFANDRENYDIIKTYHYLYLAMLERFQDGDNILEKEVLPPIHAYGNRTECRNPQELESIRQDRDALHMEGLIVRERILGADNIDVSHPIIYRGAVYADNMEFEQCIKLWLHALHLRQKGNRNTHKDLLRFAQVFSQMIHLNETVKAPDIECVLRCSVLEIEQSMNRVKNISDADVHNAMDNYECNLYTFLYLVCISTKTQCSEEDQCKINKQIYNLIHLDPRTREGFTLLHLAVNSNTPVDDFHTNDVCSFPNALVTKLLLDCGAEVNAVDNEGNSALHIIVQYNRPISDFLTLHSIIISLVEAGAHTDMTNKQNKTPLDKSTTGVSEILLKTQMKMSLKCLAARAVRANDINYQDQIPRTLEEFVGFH
Series [3] deals with T1, Bromodomain-containing protein 4 (Homo sapiens, UniProt O60885). Nature of the series: Induction of BRD4 degradation in human MV4-11 cells measured after 24 hrs. It counts as cell-based.
Series [4] concerns MV4-11. Nature of the series: Cytotoxicity against human MV4-11 cells measured after 96 hrs. It counts as functional, cell-based. The note with it: MV4-11, 96 h.
Series [5] concerns the target T1, Bromodomain-containing protein 4. Briefly: Induction of BRD4 degradation in human HD-MB03 cells measured after 12 hrs. It counts as cell-based.
In series [6] the test system is MV4-11. Nature of the series: Cytotoxicity against human MV4-11 cells. It counts as functional, cell-based.
In series [7] the target is T1, Bromodomain-containing protein 4. Nature of the series: Induction of BRD4 degradation in human HD-MB03 cells at 100 nM measured at 72 hrs relative to control. The series is classed as cell-based.
Series [8] has the same target. Nature of the series: Induction of BRD4 degradation in human MV4-11 cells measured after 12 hrs. The series is classed as cell-based.
A short description of series [9]: Cytotoxicity against human MCF10 cells assessed as measuring cell viability incubated for 48 hrs by CCK-8 assay. The series is classed as toxicity, cell-based.
The target in series [10] is T1, Bromodomain-containing protein 4. Briefly: Induction of BRD4 degradation in human MCF7 cells incubated for 72 hrs by Western blot analysis. The series is classed as cell-based. For orientation: In western blotting, separated proteins are transferred to a membrane and probed.
The subject of series [11] is MCF7. Briefly: Cytotoxicity against human MCF7 cells assessed as measuring cell viability incubated for 48 hrs by CCK-8 assay. It counts as toxicity, cell-based. The note with it: MCF7, 48 h.
For series [12], the target named is T1, Bromodomain-containing protein 4. Briefly: Induction of BRD4 degradation in human MCF7 cells incubated for 72 hrs by Western blot analysis relative to control. It counts as cell-based.
Series [13] deals with MCF7. Briefly: Antitumor activity against human MCF7 cells xenografted in mouse assessed as tumor growth inhibition. It counts as functional. (In general: A xenograft is tissue or cells of one species grown in another, often human tumour cells in immunodeficient mice.)
The subject of series [14] is SUD4. Nature of the series: Antiproliferative activity against human SU-DHL-4 cells assessed as reduction in cell viability measured after 48 hrs by MTT assay. The series is classed as functional. (Formazan colour is commonly taken as a measure of viable cells.)
The target in series [15] is T1, Bromodomain-containing protein 4. Briefly: Induction of BRD4 degradation in human HCT-116 cells assessed as downregulation of c-Myc expression. The series is classed as cell-based.
Series [16] has the same target. Briefly: Induction of BRD4 degradation in human MDA-MB-468 cells at 0.5 uM measured at 48 hrs relative to control. The series is classed as cell-based.
Series [17] concerns MDA-MB-231. Briefly: Antiproliferative activity against human MDA-MB-231 cells assessed as cell growth inhibition. It counts as functional.
Series [18] deals with MDA-MB-468. Briefly: Antiproliferative activity against human MDA-MB-468 cells assessed as cell growth inhibition. The series is classed as functional.
Series [19] concerns the target Bromodomain-containing protein 2 (Homo sapiens, UniProt P25440). Briefly: Binding affinity to BRD2 BD1 (unknown origin) assessed as dissociation constant by isothermal titration calorimetry assay.
Series [20] relates to MV4-11. Briefly: Antiproliferative activity against human MV4-11 cells assessed as reduction in cell viability incubated for 48 to 72 hrs by Celltiter-Glo cell viability assay. The series is classed as functional, cell-based.
Series [21] relates to CWR22R. Nature of the series: Antiproliferative activity against human 22Rv1 cells assessed as reduction in cell viability incubated for 48 to 72 hrs by Celltiter-Glo cell viability assay. The series is classed as functional, cell-based.
Series [22] deals with T1, Bromodomain-containing protein 4. Briefly: Induction of BRD4 degradation in human 22Rv1 cells assessed as downregulation of c-Myc expression at 250 nM measured after 2 hrs relative to control. The series is classed as cell-based.
For series [23] the target is unchanged. Nature of the series: Induction of BRD4 degradation in human HeLa cells measured after 4 hrs. The series is classed as cell-based.
Series [24] addresses von Hippel-Lindau disease tumor suppressor (Homo sapiens, UniProt P40337). Briefly: Binding affinity to VHL (unknown origin) assessed as dissociation constant by isothermal titration calorimetry assay.
Series [25] concerns the target Bromodomain-containing protein 3 (Homo sapiens, UniProt Q15059). Briefly: Induction of BRD3 degradation in human HeLa cells measured after 4 hrs. The series is classed as cell-based.
In series [26] the target is T1, Bromodomain-containing protein 4. Briefly: Binding affinity to BRD4 BD2 (unknown origin) assessed as dissociation constant by isothermal titration calorimetry assay.
For series [27] the target is unchanged. Briefly: Induction of BRD4 degradation in human HEK293T cells at 10 uM measured at 6 hrs relative to control. It counts as cell-based.
Series [28] has the same target. Briefly: Induction of BRD4 degradation in human HAP1 cells. It counts as cell-based.
Series [29] has the same target. Nature of the series: Induction of BRD4 degradation in human 231MFP cells. The series is classed as cell-based. The settings on record: 231mfp.
Series [30] has the same target. Briefly: Induction of BRD4 degradation in human HEK293T cells. The series is classed as cell-based.
Series [31] has the same target. Nature of the series: Induction of BRD4 degradation in human SU-DHL-4 measured after 72 hrs. It counts as cell-based.
The target is the same in series [32]. Briefly: Induction of BRD4 degradation in human SU-DHL-4 measured after 72 hrs relative to control. The series is classed as cell-based.

Bromodomain-containing protein 3, sequence (Q15059 whole entry): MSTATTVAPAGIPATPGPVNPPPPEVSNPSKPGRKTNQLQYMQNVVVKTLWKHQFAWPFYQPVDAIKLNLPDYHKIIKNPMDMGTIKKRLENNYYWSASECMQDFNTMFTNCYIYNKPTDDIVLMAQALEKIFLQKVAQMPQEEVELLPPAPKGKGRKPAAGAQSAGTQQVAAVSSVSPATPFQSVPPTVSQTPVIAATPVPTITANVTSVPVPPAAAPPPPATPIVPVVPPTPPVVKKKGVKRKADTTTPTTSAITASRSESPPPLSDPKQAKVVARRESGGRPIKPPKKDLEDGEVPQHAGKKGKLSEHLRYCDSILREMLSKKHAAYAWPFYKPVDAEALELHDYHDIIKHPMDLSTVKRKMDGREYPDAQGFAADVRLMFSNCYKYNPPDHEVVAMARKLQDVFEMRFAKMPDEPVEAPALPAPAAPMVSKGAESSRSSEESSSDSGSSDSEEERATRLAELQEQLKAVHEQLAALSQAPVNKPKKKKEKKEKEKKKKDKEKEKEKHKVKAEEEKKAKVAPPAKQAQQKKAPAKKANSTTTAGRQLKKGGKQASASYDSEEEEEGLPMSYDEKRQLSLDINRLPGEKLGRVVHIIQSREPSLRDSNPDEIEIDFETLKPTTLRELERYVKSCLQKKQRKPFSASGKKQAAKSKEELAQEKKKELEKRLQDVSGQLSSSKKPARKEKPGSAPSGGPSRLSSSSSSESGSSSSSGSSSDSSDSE
von Hippel-Lindau disease tumor suppressor, sequence (P40337 whole entry): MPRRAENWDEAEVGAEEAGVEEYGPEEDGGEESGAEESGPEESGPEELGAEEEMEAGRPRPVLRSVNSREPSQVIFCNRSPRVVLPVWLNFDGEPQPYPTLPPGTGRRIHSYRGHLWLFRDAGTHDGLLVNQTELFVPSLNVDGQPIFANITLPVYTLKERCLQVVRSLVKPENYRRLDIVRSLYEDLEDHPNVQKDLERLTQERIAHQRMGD
Folliculin-interacting protein 1, sequence (Q8TF40 whole entry): as the sequence (Q8TF40 whole entry) above
Bromodomain-containing protein 2, sequence (P25440 whole entry): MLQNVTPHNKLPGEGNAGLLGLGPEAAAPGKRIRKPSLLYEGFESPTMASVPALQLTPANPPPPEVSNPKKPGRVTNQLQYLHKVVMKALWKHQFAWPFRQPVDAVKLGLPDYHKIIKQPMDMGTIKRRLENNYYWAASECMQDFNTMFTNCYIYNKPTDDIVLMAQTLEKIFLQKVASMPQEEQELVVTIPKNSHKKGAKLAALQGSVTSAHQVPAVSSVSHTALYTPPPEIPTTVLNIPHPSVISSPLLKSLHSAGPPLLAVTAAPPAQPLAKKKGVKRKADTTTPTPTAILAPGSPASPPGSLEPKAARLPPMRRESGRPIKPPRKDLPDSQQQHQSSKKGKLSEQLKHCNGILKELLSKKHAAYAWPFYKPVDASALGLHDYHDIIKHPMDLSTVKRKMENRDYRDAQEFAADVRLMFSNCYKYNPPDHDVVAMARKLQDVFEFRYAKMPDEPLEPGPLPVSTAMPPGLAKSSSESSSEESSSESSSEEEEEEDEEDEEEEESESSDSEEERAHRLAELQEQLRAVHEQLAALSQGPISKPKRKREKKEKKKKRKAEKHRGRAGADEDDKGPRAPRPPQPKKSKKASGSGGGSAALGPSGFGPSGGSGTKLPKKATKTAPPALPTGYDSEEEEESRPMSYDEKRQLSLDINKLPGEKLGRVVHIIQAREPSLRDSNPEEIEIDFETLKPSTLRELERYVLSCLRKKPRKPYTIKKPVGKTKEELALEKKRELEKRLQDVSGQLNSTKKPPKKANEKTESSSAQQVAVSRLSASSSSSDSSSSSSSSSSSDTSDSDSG

Consider `N#CCCN(C(=O)CCl)c1ccc2c(c1)OCCO2`, for which the IC50 in [1] turned out to be 670 nM; in series [2], 2200 nM.
On to `Cc1sc2c(c1C)C(c1ccc(Cl)cc1)=N[C@@H](CC(=O)NCCCCCNC(=O)COc1ccc(C3CCC(=O)NC3=O)cc1)c1nnc(C)n1-2` (stereo partly drawn), for which the DC50 was found to be 0.16 nM in series [3], 24 nM in [5] and 0.87 nM in [8]. Further, the IC50 in series [4] came out at 0.003 nM; in series [6], 1.83 nM. Further, in series [7], the Emax amounted to 87%.
With `Cc1sc2c(c1C)C(c1ccc(Cl)cc1)=N[C@@H](CC(=O)NCCOCCOCCOCC(=O)NC(C)C(C)(C)C)c1nnc(C)n1-2` (stereo partly drawn), the IC50 at 48 h in series [9] is 670 nM. Moreover, the DC50 in series [10] stood at 22 nM. Further, the half-maximal inhibitory concentration (IC50) in series [11] was found to be 59.8 nM. Besides, in [12], the Emax turned out to be 13%. For the same compound, in [13], the TGI came out at 59.8%.
`COc1cc(C(=O)NCCOCCOCCOCCNC(=O)C[C@@H]2N=C(c3ccc(Cl)cc3)c3c(sc(C)c3C)-n3c(C)nnc32)ccc1NC(=O)[C@@H]1N[C@@H](CC(C)(C)C)[C@](C#N)(c2ccc(Cl)cc2F)[C@H]1c1cccc(Cl)c1F`: in [14], the GC50 was 25170 nM. The half-maximal degradation concentration (DC50) in series [15] came to 36 nM.
Turning to `CCOC(=O)C[C@H](c1ccc(C)c(CN2C[C@H](C)Oc3ccccc3S2(=O)=O)c1)c1cc(OCCNC(=O)CNC(=O)C[C@H]2N=C(c3ccc(Cl)cc3)c3c(sc(C)c3C)-n3c(C)nnc32)c2c(c1)nnn2C`, the Emax in series [16] amounted to 80%. Further, the concentration for 50% growth inhibition (GI50) in [17] is 130 nM; in series [18], 280 nM.
As for `Cc1ncsc1-c1ccc2c(c1)OCCOCCOC[C@@H](NC(=O)C[C@H]1N=C(c3ccc(Cl)cc3)c3c(sc(C)c3C)-n3c(C)nnc31)COCCOCCOCC(=O)N[C@@H](C(C)(C)C)C(=O)N1C[C@H](O)C[C@H]1C(=O)NC2`, the values for the Kd in series [19], in series [24] and in [26] were 180 nM, 47 nM and 180 nM, respectively. For the same compound, the EC50 in [20] was 300 nM; in series [21], 640 nM. Also, in [22], the Activity is greater than 90%. The DC50 is 125 nM in series [23] and 25 nM in series [25].
In series [27], `C#CCCCC(=O)N1CCOc2ccc(N(CCC#N)C(=O)CCl)cc21` registered an Emax of 94%. The results for the DC50 in series [28], in series [29] and in series [30] were 313 nM, 196 nM and 250 nM, respectively.
For `Cc1sc2c(c1C)C(c1ccc(Cl)cc1)=N[C@@H](CC(=O)NCCOCCOCCNC(=O)c1cccc(S(=O)(=O)Nc3ccc(C)c4c(C#N)c[nH]c34)c1)c1nnc(C)n1-2`, in series [14], the GC50 was 4640 nM. Besides, the DC50 in series [31] was 10800 nM. The Emax in series [32] turned out to be 98%.
